Target: T1, ΔF508-CFTR (Homo sapiens, UniProt P13569, DEL508-508)
T1 construct: expressed in transfected cells
Experiment: Membrane potential optical (FRET/VIPR) assay, identification of potentiator compounds
Format: cell-based
Conditions: Table 3, assay not given; for % Activity: relative efficacy
Method in brief: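 NIH3T3 mouse fibroblasts stably expressing ΔF508-CFTR, temperature-corrected 24 h at 27° C., read on VIPR by FRET between CC2-DMPE and DiSBAC2(3). Potentiators identified in a double-addition format, first adding chloride-free (gluconate) medium with or without compound.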

T1 sequence (P13569 with tags, fused parts or gaps DEL508-508): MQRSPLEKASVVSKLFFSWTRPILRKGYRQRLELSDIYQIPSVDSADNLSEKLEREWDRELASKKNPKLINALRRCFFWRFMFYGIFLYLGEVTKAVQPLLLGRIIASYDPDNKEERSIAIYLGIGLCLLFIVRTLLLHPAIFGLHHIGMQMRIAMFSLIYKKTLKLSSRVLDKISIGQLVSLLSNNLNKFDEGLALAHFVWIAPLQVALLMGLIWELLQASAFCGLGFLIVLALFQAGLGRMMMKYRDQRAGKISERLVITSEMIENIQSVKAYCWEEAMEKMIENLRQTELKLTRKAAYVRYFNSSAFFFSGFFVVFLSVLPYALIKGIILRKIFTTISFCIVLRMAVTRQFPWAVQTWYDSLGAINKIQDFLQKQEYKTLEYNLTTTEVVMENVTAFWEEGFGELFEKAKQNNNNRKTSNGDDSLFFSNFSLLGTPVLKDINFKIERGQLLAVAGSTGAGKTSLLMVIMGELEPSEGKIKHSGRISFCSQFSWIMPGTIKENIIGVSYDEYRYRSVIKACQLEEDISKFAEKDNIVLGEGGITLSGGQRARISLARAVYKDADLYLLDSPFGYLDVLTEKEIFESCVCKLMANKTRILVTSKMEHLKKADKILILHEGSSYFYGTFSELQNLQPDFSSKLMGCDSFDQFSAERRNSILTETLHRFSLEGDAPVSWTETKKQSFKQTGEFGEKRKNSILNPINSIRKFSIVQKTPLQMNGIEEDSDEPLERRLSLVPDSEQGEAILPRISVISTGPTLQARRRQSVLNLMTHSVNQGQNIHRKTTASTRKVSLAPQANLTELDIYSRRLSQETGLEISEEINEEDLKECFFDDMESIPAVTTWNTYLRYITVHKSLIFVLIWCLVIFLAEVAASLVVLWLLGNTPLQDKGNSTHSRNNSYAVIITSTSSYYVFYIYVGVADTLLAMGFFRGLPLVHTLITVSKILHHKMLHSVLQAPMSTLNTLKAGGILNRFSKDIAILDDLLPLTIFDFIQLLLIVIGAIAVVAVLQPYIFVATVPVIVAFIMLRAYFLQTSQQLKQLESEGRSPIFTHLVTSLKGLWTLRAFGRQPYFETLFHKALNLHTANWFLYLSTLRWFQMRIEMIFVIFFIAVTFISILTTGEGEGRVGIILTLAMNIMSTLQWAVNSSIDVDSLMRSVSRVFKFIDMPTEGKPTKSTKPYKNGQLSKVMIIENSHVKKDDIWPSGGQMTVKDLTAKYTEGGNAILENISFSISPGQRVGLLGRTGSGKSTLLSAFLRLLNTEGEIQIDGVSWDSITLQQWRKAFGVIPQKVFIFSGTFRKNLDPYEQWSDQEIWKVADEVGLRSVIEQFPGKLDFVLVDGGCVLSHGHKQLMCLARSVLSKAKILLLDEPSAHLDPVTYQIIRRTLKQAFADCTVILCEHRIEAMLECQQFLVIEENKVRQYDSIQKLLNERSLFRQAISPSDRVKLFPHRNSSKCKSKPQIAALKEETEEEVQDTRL

Row | SMILES | EC50 [µM] | % Activity
1 | Cc1ccc(NC(=O)c2c[nH]c3ccccc3c2=O)cc1C [Compound 246, N-(3,4-dimethylphenyl)-4-oxo-1H-quinoline-3-carboxamide] | < 10 | ++ (between 25% to 100%)
2 | O=C(Nc1ccccc1-c1ccccc1Oc1ccccc1)c1c[nH]c2ccccc2c1=O [Compound 247, 4-oxo-N-[2-(2-phenoxyphenyl)phenyl]-1H-quinoline-3-carboxamide] | < 10 | ++ (between 25% to 100%)
3 | CC(=O)Nc1cc(NC(=O)c2c[nH]c3ccccc3c2=O)ccc1C [Compound 248, N-(3-Acetylamino-4-methyl-phenyl)-4-oxo-1H-quinoline-3-carboxamide] | 10 to 25 | ++ (between 25% to 100%)
4 | CCc1ccc(NC(=O)OC)cc1NC(=O)c1c[nH]c2ccccc2c1=O [Compound 249, [4-ethyl-3-[(4-oxo-1H-quinolin-3-yl)carbonylamino]phenyl]aminoformic acid methyl ester] | 10 to 25 | ++ (between 25% to 100%)
5 | COc1ccc(NC(C)=O)cc1NC(=O)c1c[nH]c2ccccc2c1=O [Compound 250, N-(5-acetylamino-2-methoxy-phenyl)-4-oxo-1H-quinoline-3-carboxamide] | 25 to 60 | + (<25%)
6 | CC(C)COC(=O)NCC(C)(C)c1ccc(NC(=O)c2c[nH]c3ccccc3c2=O)cc1 [Compound 251, [2-methyl-2-[4-[(4-oxo-1H-quinolin-3-yl)carbonylamino]phenyl]-propyl]aminoformic acid isobutyl ester] | < 10 | ++ (between 25% to 100%)
7 | O=C(c1ccccc1)c1ccccc1NC(=O)c1c[nH]c2ccccc2c1=O [Compound 252, N-(2-benzoylphenyl)-4-oxo-1H-quinoline-3-carboxamide] | 10 to 25 | ++ (between 25% to 100%)
8 | O=C(Nc1ccccc1-c1cccc(OC(F)(F)F)c1)c1c[nH]c2ccccc2c1=O [Compound 253, 4-oxo-N-[2-[3-(trifluoromethoxy)phenyl]phenyl]-1H-quinoline-3-carboxamide] | < 10 | ++ (between 25% to 100%)
9 | O=C(Nc1cc2[nH]ccc2cc1F)c1c[nH]c2ccc(F)cc2c1=O [Compound 254, 6-fluoro-N-(5-fluoro-1H-indol-6-yl)-4-oxo-1H-quinoline-3-carboxamide] | < 10 | ++ (between 25% to 100%)
10 | CC(C)(C)c1cc(C(C)(C)C)c(NC(=O)c2c[nH]c3ccc(S(=O)(=O)N4CCCC4)cc3c2=O)cc1O [Compound 255, N-(5-hydroxy-2,4-ditert-butyl-phenyl)-4-oxo-6-pyrrolidin-1-ylsulfonyl-1H-quinoline-3-carboxamide] | < 10 | ++ (between 25% to 100%)
11 | O=C(Nc1ccc2[nH]nnc2c1)c1c[nH]c2ccccc2c1=O [Compound 256, N-(1H-benzotriazol-5-yl)-4-oxo-1H-quinoline-3-carboxamide] | 25 to 60 | + (<25%)
12 | Cc1cc(NC(=O)c2c[nH]c3ccccc3c2=O)ccc1F [Compound 257, N-(4-fluoro-3-methyl-phenyl)-4-oxo-1H-quinoline-3-carboxamide] | < 10 | ++ (between 25% to 100%)
13 | O=C(Nc1ccc2c(c1)NCC2)c1c[nH]c2ccccc2c1=O [Compound 258, N-Indolin-6-yl-4-oxo-1H-quinoline-3-carboxamide] | < 10 | ++ (between 25% to 100%)
14 | CCC(C)c1c[nH]c2cc(NC(=O)c3c[nH]c4ccccc4c3=O)ccc12 (centres unmarked) [Compound 259, 4-oxo-N-(3-sec-butyl-1H-indol-6-yl)-1H-quinoline-3-carboxamide] | < 10 | ++ (between 25% to 100%)
15 | CC(C)(C)c1ccc(N)cc1NC(=O)c1c[nH]c2ccccc2c1=O [Compound 260, N-(5-Amino-2-tert-butyl-phenyl)-4-oxo-1H-quinoline-3-carboxamide] | < 10 | ++ (between 25% to 100%)
16 | Cc1ccc(-c2ccccc2NC(=O)c2c[nH]c3ccccc3c2=O)cc1C [Compound 261, N-[2-(3,4-dimethylphenyl)phenyl]-4-oxo-1H-quinoline-3-carboxamide] | < 10 | ++ (between 25% to 100%)
17 | O=C1CSc2ccc(NC(=O)c3c[nH]c4ccccc4c3=O)cc2N1 [Compound 262, 1,4-dihydro-N-(3,4-dihydro-3-oxo-2H-benzo[b][1,4]thiazin-6-yl)-4-oxoquinoline-3-carboxamide] | < 10 | ++ (between 25% to 100%)
18 | CCc1cc(Br)ccc1NC(=O)c1c[nH]c2ccccc2c1=O [Compound 263, N-(4-bromo-2-ethyl-phenyl)-4-oxo-1H-quinoline-3-carboxamide] | < 10 | ++ (between 25% to 100%)
19 | CCOc1ccc(OCC)c(NC(=O)c2c[nH]c3ccccc3c2=O)c1 [Compound 264, N-(2,5-diethoxyphenyl)-4-oxo-1H-quinoline-3-carboxamide] | 10 to 25 | ++ (between 25% to 100%)
20 | O=C(Nc1ccccc1Cc1ccccc1)c1c[nH]c2ccccc2c1=O [Compound 265, N-(2-benzylphenyl)-4-oxo-1H-quinoline-3-carboxamide] | < 10 | ++ (between 25% to 100%)
21 | CC(C)(C)c1cc(C(F)(F)F)c(NC(=O)c2c[nH]c3ccccc3c2=O)cc1O [Compound 266, N-[5-hydroxy-4-tert-butyl-2-(trifluoromethyl)phenyl]-4-oxo-1H-quinoline-3-carboxamide] | < 10 | ++ (between 25% to 100%)
22 | O=C(Nc1ccc(Oc2ccccc2)cc1)c1c[nH]c2ccccc2c1=O [Compound 267, 4-oxo-N-(4-phenoxyphenyl)-1H-quinoline-3-carboxamide] | < 10 | ++ (between 25% to 100%)
23 | CC(C)(C)c1ccc(NC(=O)c2c[nH]c3ccccc3c2=O)cc1S(N)(=O)=O [Compound 268, 4-oxo-N-(3-sulfamoyl-4-tert-butyl-phenyl)-1H-quinoline-3-carboxamide] | 10 to 25 | ++ (between 25% to 100%)
24 | CCOC(=O)Nc1ccc(C(C)C)c(NC(=O)c2c[nH]c3ccccc3c2=O)c1 [Compound 269, [4-isopropyl-3-[(4-oxo-1H-quinolin-3-yl)carbonylamino]phenyl]aminoformic acid ethyl ester] | < 10 | ++ (between 25% to 100%)
25 | N#Cc1cc2ccc(NC(=O)c3c[nH]c4ccccc4c3=O)cc2[nH]1 [Compound 270, N-(2-cyano-1H-indol-6-yl)-4-oxo-1H-quinoline-3-carboxamide] | < 10 | ++ (between 25% to 100%)

The remaining lines, values ahead:

Row | EC50 [µM] | % Activity | SMILES
26 | < 10 | ++ (between 25% to 100%) | CC(C)(C)c1ccc(NC(=O)c2c[nH]c3ccccc3c2=O)cc1N [Compound 271, N-(3-amino-4-tert-butyl-phenyl)-4-oxo-1H-quinoline-3-carboxamide]
27 | 10 to 25 | ++ (between 25% to 100%) | O=C(Nc1cc(NS(=O)(=O)CCN2CCOCC2)cc(C(F)(F)F)c1)c1c[nH]c2ccccc2c1=O [Compound 272, N-[3-(2-morpholinoethylsulfonylamino)-5-(trifluoromethyl)phenyl]-4-oxo-1H-quinoline-3-carboxamide]
28 | < 10 | +++ (>100%) | CC(C)(C)OC(=O)NC1CCCc2ccc(NC(=O)c3c[nH]c4ccccc4c3=O)cc21 (centres unmarked) [Compound 273, [7-[(4-oxo-1H-quinolin-3-yl)carbonylamino]tetralin-1-yl]aminoformic acid tert-butyl ester]
29 | < 10 | ++ (between 25% to 100%) | CC(C)(C)c1cc2cc[nH]c2cc1NC(=O)c1c[nH]c2ccc(S(=O)(=O)N3CCCC3)cc2c1=O [Compound 274, 4-oxo-6-pyrrolidin-1-ylsulfonyl-N-(5-tert-butyl-1H-indol-6-yl)-1H-quinoline-3-carboxamide]
30 | 10 to 25 | ++ (between 25% to 100%) | CC(C)(C)c1ccc(NC(=O)c2cnc3ccccc3c2OCc2ccccc2)cc1O [Compound 275, 4-Benzyloxy-N-(3-hydroxy-4-tert-butyl-phenyl)-quinoline-3-carboxamide]
31 | 10 to 25 | ++ (between 25% to 100%) | O=C(Nc1ccc(S(=O)(=O)N2CCOCC2)cc1)c1c[nH]c2ccccc2c1=O [Compound 276, N-(4-morpholinosulfonylphenyl)-4-oxo-1H-quinoline-3-carboxamide]
32 | – | +++ (>100%) | O=C(Nc1ccccc1-c1cccc(F)c1)c1c[nH]c2ccccc2c1=O [Compound 277, N-[2-(3-fluorophenyl)phenyl]-4-oxo-1H-quinoline-3-carboxamide]
33 | < 10 | ++ (between 25% to 100%) | O=C(Nc1ccccc1-c1cccc(C(F)(F)F)c1)c1c[nH]c2ccccc2c1=O [Compound 278, 4-oxo-N-[2-[3-(trifluoromethyl)phenyl]phenyl]-1H-quinoline-3-carboxamide]
34 | – | ++ (between 25% to 100%) | CSc1ccccc1-c1ccccc1NC(=O)c1c[nH]c2ccccc2c1=O [Compound 279, N-[2-(2-methylsulfanylphenyl)phenyl]-4-oxo-1H-quinoline-3-carboxamide]
35 | 25 to 60 | + (<25%) | O=C(Nc1ccc2ncccc2c1)c1c[nH]c2ccccc2c1=O [Compound 280, 4-oxo-N-(6-quinolyl)-1H-quinoline-3-carboxamide]
36 | < 10 | ++ (between 25% to 100%) | Cc1ccc(NC(=O)c2c[nH]c3ccccc3c2=O)c(C)c1 [Compound 281, N-(2,4-dimethylphenyl)-4-oxo-1H-quinoline-3-carboxamide]
37 | – | ++ (between 25% to 100%) | CCc1ccc(N)cc1NC(=O)c1c[nH]c2ccccc2c1=O [Compound 282, N-(5-amino-2-ethyl-phenyl)-4-oxo-1H-quinoline-3-carboxamide]

Reference: US8614327B2 (Vertex Pharmaceuticals Incorporated, priority 2004, dated 2013)
